Measured values reported in patent US20260070887A1 (Shenzhen Zhongge Biological Technology Co., Ltd., priority 2022, published 2026).

Legend:
[1] = tested on: HCC1395 cells; assay: HCC1395 cell proliferation (Cell Titer-Glo, 6 days); assay type: cell-based; conditions: KIF18A-insensitive tumor cells
Experimental: The inhibitory effect on the KIF18A target by the compounds of the present disclosure was evaluated by testing the inhibitory effect on proliferation of HCC1954 and HCC1395 cells by the compounds of the present disclosure.
HCC1954 (ATCC, CRL-2388) and HCC1395 (ATCC, CRL-2324) cells were cultured separately in RPMI-1640 complete medium (Gibco, A1049101) containing 20% fetal bovine serum (Gibco, 10099141C), 100 U penicillin, and 100 μg/mL streptomycin (Gibco, 15140-122). The Promega kit Cell Titer-Glo (Promega: G7572) was used in this method for test. • 1. HCC1954 (KIF18A-sensitive tumor cells) and HCC1395 (KIF18A-insensitive tumor cells) were cultured separately in T75 cell culture flasks (Corning, 430641), and the medium was placed in a 37° C., 5% CO2 incubator. • 2. When the cell density reached 70% to 80% (about 2 to 3 times per week), cells are passaged with trypsin (0.25% EDTA). • 3. The cell culture flask was taken out and the cells were separated by adding 2 mL of trypsin (0.25% EDTA source) for 5 minutes. • 4. Digestion was stopped by adding 8 mL of RPM1-1640 medium and the cell suspension was transferred to a centrifuge tube and centrifuged at 1000 rpm for 5 minutes. • 5. The cells were resuspended with 5 mL of RPMI-1640 medium. Cell density was adjusted to 5×10^3/mL (HCC1954), and 2.5×10^4/mL (HCC1395), respectively. • 6. 40 μL of cell solution was added to the 384-well plate (Corning, 3765). • 7. The 384-well plate was centrifuged at 1000 rpm for 1 minute. • 8. The cells were cultured overnight in a 37° C., 5% CO2 incubator. • 9. The next day, 40 nL of compound solution was added to the 384-well plate using Echo650. The plate was then placed in a 37° C., 5% CO2 incubator for 6 days. • 10. After 6 days, 20 μL of Cell-Titer-Glo (Promega, G7572) reagent was added per well. • 11. Luminescence values were measured using the EnVision Xcite Multilabel Reader (PerkinElmer, 2105-0020).
The percentage of inhibition of cell proliferation by the test compound at each concentration was calculated by comparing with the values of the control group (0.1% DMSO). The IC50 values of the compounds were obtained by concentration-inhibition rate nonlinear regression analysis of the test compounds using GraphPad Prism 9.

[2] = tested on: OVCAR3 tumor; assay: OVCAR3 human ovarian cancer subcutaneous transplant tumor model; assay type: in vivo, mouse; conditions: oral, QD, 28 days, balb/c nude mice
Text: • I. Experimental objective: evaluation of the pharmacological effects of the reference compounds and the compounds of the present disclosure in the OVCAR3 human ovarian cancer subcutaneous transplant tumor model. • II. Experimental material: experimental female balb/c nude mice, 6-8-week old or 18-20 g, provided by Vital River Laboratory Animal Technology Co., Ltd. • III. Experimental method: Experimental animals were housed within a specific pathogen-free animal barrier facility, and the experiment was started 3 days after the animals were acclimated. The human ovarian cancer OVCAR3 tumor cells were cultured in vitro as monolayers in RPMI 1640 complete medium (supplemented with a final concentration of 20% fetal bovine serum, 1% penicillin-streptomycin dual antibiotics, and 0.01 mg/ml insulin) at 37° C. in an atmosphere containing 5% CO2. The tumor cells were routinely passaged 2-3 times per week, and the cells in the exponential growth phase were collected and counted for tumor cell inoculation. 10×10^6 OVCAR3 tumor cells were resuspended in 0.1 m1 PBS and mixed with 0.1 m1 matrigel and then subcutaneously inoculated into the right flank of each mouse to establish tumors. When the mean tumor volume of the tumor-bearing mice grew to around 100 mm^3, the appropriate tumor-bearing mice were selected for randomization and the groups were set as: blank control groups, reference compound groups, and groups of compounds of the present disclosure. Vehicles were administered orally in the blank control group, and the corresponding compounds were administered orally in the other groups for 28 days. Tumor volumes and animal weights were monitored […], twice weekly. This experiment examined the inhibitory effect of the reference compound and the compound of the present disclosure on the growth of OVCAR3 human ovarian cancer cells by monitoring the size of the tumor volume of each group after administration of the compounds.

SMILES | IC50 [1] [µM] | inhibition rate on OVCAR3 tumor growth ([2]; 10 mg/kg) | other results
O=C(Nc1cccc2c1cc1n2CCOC1)c1ccc(NS(=O)(=O)CCO)cc1N1CCC2(CC1)CC2 [Example 235, N-(3,4-dihydro-1H-[1, 4]oxazino[4,3-a]indol-9-yl)-4-(2-hydroxyethylsulfonamido)-2-(6-azaspiro[2.5]octan-6-yl)benzamide] | – | – | IC50 ([1]; Homo sapiens, HCC1395, 144 h): > 5 µM
Nc1cc(NS(=O)(=O)CCO)cc(N2CCC3(CC2)CC3)c1C(=O)Nc1cccc(N2CCC(F)(F)CC2)c1 [Example 1, 2-amino-N-(3-(4,4-difluoropiperidin-1-yl)phenyl)-4-((2-hydroxyethyl)sulfonamide)-6-(6-azaspiro[2.5]octan-6-yl)benzamide] | > 5 | – | –
O=C(Nc1cccc2c1cc1n2CCOC1)c1ccc(NS(=O)(=O)CCO)cc1N1CCC(=C(F)F)CC1 [Example 319, 2-(4-difluoromethylene)piperidin-1-yl-N-(3,4-dihydro-1H-[1,4]oxazino[4,3-a]indol-9-yl)-4-((2-hydroxyethyl)sulfonamide) benzamide] | > 5 | – | –
CC1(C)Cn2c(cc3c(NC(=O)c4ccc(NS(=O)(=O)CCO)cc4N4CCC5(CC4)CC5)cccc32)CO1 [Example 371, N-(3,3-dimethyl-3,4-dihydro-1H-[1,4]oxazino[4,3-a]indol-9-yl)-4-(2-hydroxyethylsulfonamido)-2-(6-azaspiro[2.5]octan-6-yl)benzamide] | – | 94%-98% | inhibition rate on OVCAR3 tumor growth ([2]; 30 mg/kg): about 110%
COc1ccc(NC(=O)c2ccc(NS(=O)(=O)CCO)cc2N2CCC3(CC2)CC3)c2cc3n(c12)CC(C)(C)OC3 [Example 455, 4-((2-hydroxyethyl)sulfonamido)-N-(6-methoxy-3,3-dimethyl-3,4-dihydro-1H-[1,4]oxazinyl[4,3-a]indol-9-yl)-2-(6-azaspiro[2.5]oct-6-yl)benzamide] | – | 94%-98% | –
COc1ccc(NC(=O)c2ccc(NS(=O)(=O)CCO)cc2N2CCC(=C(F)F)CC2)c2cc3n(c12)CC(C)(C)OC3 [Example 465, 2-(4-(difluoromethylene)piperidin-1-yl)-4-((2-hydroxyethyl)sulfonamido)-N-(6-methoxy-3,3-dimethyl-3,4-dihydro-1H-[1,4]oxazinyl[4,3-a]indol-9-yl)benzamide] | – | 60%-70% | –
CNc1cc(NS(=O)(=O)CCO)cc(N2CCC3(CC2)CC3)c1C(=O)Nc1cc(C)nc(N2CCC(F)(F)CC2)n1 [Example 4, N-(2-(4,4-difluoropiperidin-1-yl)-6-methylpyrimidin-4-yl)-4-(2-hydroxyethylsulfonamide)-2-methylamino-6-(6-azaspiro[2.5]octan-6-yl)benzamide] | > 5 | – | –
